Data from article PMC10669474, “An Exploration of Small Molecules That Bind Human Single-Stranded DNA Binding Protein 1” (Biology, 2023).

How the values were obtained:
[1] = target: T1, hSSB1 (Homo sapiens, UniProt Q9BQ15); assay: AlphaLISA Mini Library screen; format: binding; settings: for inhibition at 10 µM: triplicate
T1 construct: 6xHis (N); made in house; host or cells: E. coli BL21 (DE3*)
Experimental: In parallel to the rational design of small-molecule inhibitors, we acquired access to the Open Innovation Mini Library of small compounds from Merck KGaA, Darmstadt, Germany. This library consisted of 80 compounds at 10 mM in DMSO that had been investigated against other targets, from receptor blockers to protein inhibitors. The goal of screening this library was to test various scaffolds for their affinity to hSSB1.
Using a FlexDrop iQ, 16 nL of each compound was dispensed onto a white low-volume 384-well microplate (PerkinElmer, Shelton, CT, USA) in triplicate at an assay concentration of 10 μM. In3-PS was used as the positive control binding entity at a concentration of 1 μM. The AlphaLISA assay conditions are described in Section 2.4. The hit cut-off used was an average inhibition of 30% across the three repeats. The plate was read using an EnSight Multimode Plate Reader (PerkinElmer, Shelton, CT, USA) at 10, 60, and 120 min.

[2] = target: T1, hSSB1; assay: AlphaLISA competition dose-response binding assay; settings: for Kd: as restated in discussion, read-out: affinity to hSSB1 in AlphaLISA binding assays; for binding to hSSB1 in the AlphaLISA: triplicate
Experimental: To analyse the binding of compounds to hSSB1 and design a screening assay, we used Perkin Elmer’s AlphaLISA technology. The full assay design is described in the Supplementary Information. The optimal assay conditions were determined with a series of titration matrices to be 0.5 nM hSSB1, 5 nM In3-PD-biotin, 1 nM anti-hSSB1 antibody, 10 μg/mL SA donor beads, and 5 μg/mL protein G acceptor beads in a 16 μL reaction volume. These were combined in a buffer containing 10 mM Tris (pH 7.5), 100 mM NaCl, 0.1% β-mercaptoethanol, and 0.01% IGEPAL. First, an 8 μL mix of hSSB1, anti-hSSB1 antibody, and acceptor beads was prepared, which was added to the compound of interest and incubated for 1 h. Second, an 8 μL aliquot of a solution containing In3-PD-biotin and SA donor beads was added to the well. This was incubated before imaging with an EnSight Multimode Plate Reader (PerkinElmer, Shelton, CT, USA) at 10, 60, and 120 min. The assay was designed in a competition format so that the Cheng–Prusoff equation was met and the IC50 approximated the Kd.
Dose–response curves were obtained for hit compounds and compared with TDRL-551. The same AlphaLISA competition format was used to determine the IC50/Kd of compounds binding to hSSB1. Each compound was dissolved in DMSO before being dispensed into a white 384-well microplate (PerkinElmer, Shelton, CT, USA) using a FlexDrop iQ. […]
1.1.1 Design of the AlphaLISA screening assay
To test whether the compounds bind to hSSB1 and to design an effective screening assay, we used AlphaLISA technology from Perkin Elmer. This technology involves binding a biotin-labelled control DNA oligonucleotide (btn-In3-PD) to a streptavidin-coated donor (SA-donor) bead. hSSB1 is bound to an anti-hSSB1 sheep antibody as described previously, which binds to Protein G-coated acceptor beads. When hSSB1 and btn-In3-PD bind, they bring the two beads close together, and with excitation at 680 nm by laser irradiation, the phthalocyanine in the donor bead excites ambient oxygen to a reactive form of O2. When this is within 200 nm of a europium-containing acceptor bead (during a binding event), the reactive oxygen is transferred to the thioxene derivative, producing light at 615 nm. Without the acceptor bead, oxygen returns to its ground state. This lends the assay to a competition-based format for high- […]
A titration matrix is required to optimise assay conditions to develop an AlphaLISA assay that accurately acquires results and subsequently follows the Cheng-Prusoff equation to report IC50’s as a molecule Kd. […] This is determined by finding the hook point of signal, which indicates the highest signal before the bead is saturated, after which a decrease in signal is observed. […]

[3] = test system: E. coli SSB; design: method as in PMID 27609050; settings: ssDNA interaction; cited from earlier work
[4] = test system: U2OS cells; assay: CellTitre-Glo cytotoxicity assay; format: cell-based, human; settings: 48 h incubation, 30—0.0492 μM, CTG
Experimental: The osteosarcoma cell line U2OS was purchased from the American Type Culture Collection (ATCC) and seeded at a density of 500 cells/well in a 384-well plate. They were maintained at 37 °C in a humidified atmosphere containing 5% CO2 in Roswell Park Memorial Institute […] (RPMI) medium (ThermoFisher Scientific, Inc., Brisbane, Australia) supplemented with 10% (v/v) heat-inactivated foetal bovine serum (FBS) (ThermoFisher Scientific). A cytotoxicity assay was conducted to test the impact of the three Merck KGaA, Darmstadt, Germany, compounds (MS-ML24, MS-ML25, MS-ML26) on cell viability. Increasing concentrations of each MS-ML compound were added from […] in serial dilutions of 2.5 (n = 4). The cells were incubated with the compound for 48 h before the CellTitre-Glo (CTG) (Promega) assay was performed as per the manufacturer’s instructions. The plate was read on an EnSight Multimode Plate Reader (PerkinElmer, Shelton, CT, USA).

[5] = target: T1, hSSB1; assay: Electrophoretic mobility shift assay (EMSA), competition with Cy5-labelled ssDNA probe; format: binding; settings: tested from 200 to 0.091 μM
Experimental: These were performed in 10 μL reactions of 10 mM Tris (pH 7.5), 100 mM NaCl, 0.01% IGEPAL, and 1 mM DTT. Two 5 μL solutions were prepared. The first mix contained hSSB1 with the compound of interest, which were incubated together for 10 min before the addition of the probe molecule, Cy5-labelled In3-PS. The combined solution was incubated for 30 min at 37 °C, before loading dye was added and the samples were loaded into 10% polyacrylamide TBE gels. These gels were run for 1.5 h in a cold room at 80 V before being imaged using a ChemiDoc Imaging System (BioRad, Hercules, CA, USA) and quantified using ImageStudio Lite (Version 5.2) software.
The optimal conditions for the EMSAs were established using a titration matrix of hSSB1 and Cy5-labelled In3-PD concentrations. Concentrations of hSSB1 from 1000 to 0.26 nM and Cy5-labelled In3-PD at 1 nM and 5 nM were tested. The final conditions were established as 15 nM hSSB1 and 1.5 nM Cy5-labelled In3-PS, where the In3-PS is 100% bound. The concentrations of the MS-ML compounds of Merck KGaA, Darmstadt, Germany, were tested from 100 to 0.046 μM, and the concentrations of the novel DAZLN compounds were tested from 200 to 0.091 μM.

T1 sequence (Q9BQ15 whole entry): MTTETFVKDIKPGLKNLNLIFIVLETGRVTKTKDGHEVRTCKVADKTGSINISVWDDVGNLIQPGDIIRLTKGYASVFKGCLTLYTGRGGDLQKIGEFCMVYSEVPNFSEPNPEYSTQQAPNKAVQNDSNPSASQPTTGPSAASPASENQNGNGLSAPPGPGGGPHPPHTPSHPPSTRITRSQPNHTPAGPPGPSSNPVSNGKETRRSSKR

CCCCCCN(Cc1ccc(C#Cc2ccc(CCCC)cc2)cc1)c1ccc(F)c(C(=O)O)c1 [MS-ML26]
result in initial screen relative to hit threshold ([1]; 10 μM, hit cut-off average inhibition of 30%): slightly lower than the threshold set for the screen
Kd [2]: 0.198 µM

O=c1c(O)cccc2cc(O)c(O)c(O)c12 [purpurogallin]
concentration at which 50% bound [3]: ~ 25 μM

CCOc1ccc2cc(C3CC(c4ccc(I)cc4)=NN3C(=O)CCCC(=O)O)c(Cl)nc2c1 (stereo not drawn) [TDRL-551]
cytotoxic effect in U2OS cells [4]: no cytotoxic effect

CCCCCCN(Cc1ccc(C#Cc2ccc(CCCC)cc2)cc1)C(=O)c1ccc(O)c(C(=O)O)c1 [MS-ML25]
inhibition at 10 µM [1]: > 45%

COc1ccc2cc([C@H]3CC(c4cn(C)c5cc(OC)ccc45)=NN3C(=O)CCCC(=O)NCC(=O)N3CCOCC3)ccc2c1 [DAZLN-56]
binding to hSSB1 / inhibition in the EMSA [5]: not reflected in the EMSA
binding to hSSB1 in the AlphaLISA [2]: low level of binding

COc1ccc2cc([C@H]3CC(c4cn(C)c5cc(OC)ccc45)=NN3)ccc2c1 [DAZLN-51]
binding to hSSB1 / inhibition in the EMSA [5]: no inhibition was observed
binding to hSSB1 in the AlphaLISA [2]: no binding

CCCCCCN(Cc1ccc(C#Cc2ccc(CCCC)cc2)cc1)c1ccc(O)c(C(=O)O)c1 [MS-ML24]
inhibition at 10 µM [1]: > 45%
Kd [2]: 0.143 µM

O=c1cc2oc3cc(O)c(O)cc3c(-c3ccccc3O)c-2cc1O [9-hydroxyphenylfluoron]
concentration at which 50% bound [3]: ~ 25 μM
